Results taken from patent publication US10369123B2, “Perk activator for the treatment of neurodegenerative diseases” (DEUTSCHES ZENTRUM FÜR NEURODEGENERATIVE ERKRANKUNGEN E.V. …, priority 2014, dated 2019).

Assays:
Type in all cases: cell-based, human
[1] = test system: tau; assay: Western blot of tau conformation and phosphorylation, annonacin model; conditions: annonacin 25 nM, 48 h
Procedure: (§1) Nunc™ Nunclon™ Delta 6-well (for protein and mRNA) or 48-well (for cell assays) plates (Thermo Fisher Scientific, Waltham, Mass., USA) were coated with 100 μg/ml poly-L-lysine (Sigma-Aldrich, St. Louis, Mo., USA) and 5 μg/ml fibronectin (Sigma-Aldrich). LUHMES (Lund Human Mesencephalic) cells, derived from human embryonic ventral mesencephalic cells by conditional immortalization (Tet-off v-myc over-expression) were seeded out in a concentration of 130,000 cells/cm^2 to achieve a confluence of 50%. They were then differentiated for 8 days in a medium of DMEM/F12 (Sigma-Aldrich), 1 μg/ml tetracycline, […] and 490 μg/ml dbcAMP into post-mitotic neurons with a dopaminergic phenotype (Lotharius et al. 2005).
(§2) For all experiments with annonacin, the medium was replaced during the intoxication period with new medium containing glucose levels reduced to 250 μM, i.e. the physiological concentration in the human brain.
(§3) Protein was extracted by scraping the cells from the culture plate with Mammalian Protein Extraction Reagent (M-PER, Thermo Fisher Scientific) and 1× cOmplete Protease Inhibitor Cocktail Tablets (Hoffmann-La Roche, Basel, Switzerland) and 1× PhosSTOP Phosphatase Inhibitor Cocktail Tablets (Hoffmann-La Roche). For pNRF2 blots, cells were extracted with 2% SDS tris-buffer instead of M-PER in order to obtain whole cell extracts and not to lose the nuclear fraction. The protein solution was frozen at −80° C., immediately after retrieval, for a minimum of two hours. The solution was then thawed on ice, vortexed, centrifuged at 5000 g for 15 min at 4° C. and the supernatant retrieved. Protein concentrations were determined using the BCA kit (Thermo Fisher Scientific) by heating the samples at 60° C. for 30 min and measuring the absorption on the NanoDrop 2000c Spectrophotometer (Thermo Fisher Scientific).
(§4) 20 μg of protein (unless indicated otherwise) were adjusted to equal concentrations between samples by dilution with M-PER and subsequently heated at 95° C. for 5 minutes with Roti®-Load 1 (Carl Roth). SDS-PAGE was performed using Any kD™ Mini-PROTEAN® TGX™ Gels (BioRad, Berkeley, Calif., USA) in a tris-glycine running buffer. The protein was blotted onto PVDF membrane (BioRad) at 70 V for 65 minutes on ice. The membrane was blocked with 1× Roti®-Block solution (Carl Roth) for 1 h and then incubated at 4° C. overnight under gentle shaking with the primary antibody (see Table 5) in TBS with 5% BSA (Cell Signaling Technology) and 0.05% TWEEN (Sigma-Aldrich).
The membranes were then washed and incubated with the species specific HRP-bound secondary antibody (Vector Laboratories, Burlingame, Calif., USA) at 1:2500 in 1× Roti®-Block solution for 2 h, followed by further washing and exposure to Clarity Western ECL Substrate (BioRad) or, in the case of MC1 and 4R-tau, to Amersham™ ECL™ Prime (GE Healthcare). Chemiluminescence was detected with the Gel Doc™ XR System (BioRad) and analyzed with Image Lab™ software (BioRad), followed by graphical and statistical analysis with Prism 6 (GraphPad Software).

[2] = test system: unfolded protein response (PERK, EIF2A); assay: Western blot of UPR proteins in differentiated LUHMES neurons; conditions: 48 h; for phosphorylated EIF2A (pEIF2A) protein / phosphorylated PERK (pPERK) protein: thapsigargin 30 nM or annonacin 25 nM
Procedure: as §1, §2, §3
200 μg of protein were diluted to equal concentrations with M-PER lysis buffer (Thermo Fisher Scientific) up to 270 μl. The PERK D11A8 antibody (Cell Signaling Technology, Beverly, Mass., USA) was added to a concentration of 1:100 and allowed to bind the antigen for one hour in a rotating 1.5 ml microcentrifuge tube. Then 30 μl of protein sepharose A beads (Sigma-Aldrich, 3 mg per ml) were added to each tube and left rotating overnight at 4° C. The tubes were then centrifuged at 10,000 g for 3 minutes and the supernatant was discarded. The beads were washed in M-PER three times. Each time the beads were centrifuged and the supernatant was extracted with a Hamilton Syringe (Hamilton, Bonaduz, Switzerland) and discarded. The beads were then mixed with 15 μl 1× Roti®-Load 1 (Carl Roth) and heated at 95° C. for 5 minutes. After another centrifugation step of 10,000 g for 1 minute the supernatant was loaded onto a gel with the Hamilton syringe and then blotted as described below.
as §4
The membranes were then washed and incubated with the species specific HRP-bound secondary antibody (Vector Laboratories, Burlingame, Calif., USA) at 1:2500 in 1× Roti®-Block solution for 2 h, followed by further washing and exposure to Clarity Western ECL Substrate (BioRad) or, in the case of MC1 and 4R-tau, to Amersham™ ECL™ Prime (GE Healthcare). […]

[3] = test system: 3R/4R MAPT mRNA, splicing factor SRSF2; assay: Quantitative PCR of MAPT isoforms and splicing factors, annonacin model; conditions: annonacin
Procedure: as §1, §2
(§5) RNA from human tissue samples was extracted by grinding the tissue in liquid nitrogen to a powder and then dissolving it in the RA1 buffer supplied as part of the NucleoSpin® RNA (Macherey Nagel) RNA extraction kit+1% (v/v) 2-mercaptoethanol (Sigma-Aldrich). RNA from cells was extracted by scraping the cells from the culture plate with RA1 buffer+1% (v/v) 2-mercaptoethanol. The remaining extraction procedure was according to the manufacturer's instructions for the NucleoSpin® RNA kit. RNA concentrations were determined using the NanoDrop 2000c Spectrophotometer. The RNA was then transcribed into cDNA with the iScript™ cDNA Synthesis Kit (BioRad) using the manufacturer's instructions. Real-Time PCR was performed on the Applied Biosystems® StepOnePlus™ (Life Technologies) system using TagMan® Universal Master Mix II and TaqMan® primers against total MAPT, MAPT 3R, MAPT 4R, EIF2A, EI2AK3 and ATF4. POL2A and PSCM1 served as reference targets as they were determined to be the most stably expressed across experimental conditions. The results were analyzed using the StepOne Plus software (Life Technologies) and Qbase software (Biogazelle) and were then graphically and statistically analyzed with Prism 6 (GraphPad Software). Absolute quantification was performed by creating a standard curve with plasmids containing either the 2N3R or the 2N4R spliced variant of MAPT (see Table 2). The absolute quantity was computed by deriving the relationship between CT values and absolute quantity with the StepOne Plus software.

[4] = test system: EIF2AK3, EIF2A and ATF4 mRNA; assay: Quantitative PCR of UPR genes in differentiated LUHMES neurons; conditions: 48 h; for ATF4 mRNA expression: thapsigargin 30 nM or annonacin 25 nM
Procedure: as §1, §2, §5

[5] = test system: LUHMES neurons; assay: MTT assay, annonacin-treated LUHMES neurons; conditions: annonacin alone, different concentrations, 48 h
Procedure: as §1, §2
Thiazolyl Blue Tetrazolium […] (MTT) (Sigma Aldrich) was dissolved in sterile PBS to a concentration of 5 mg/ml. This stock solution was added to the cells in culture medium to achieve a final concentration of 0.5 mg/ml. The 48-well culture plate was then incubated at 37° C. for 1 h, the medium removed completely and frozen at −80° C. for 1 h. The plate was then thawed, 300 μl DMSO (AppliChem, Darmstadt, Germany) was added per well and the plate was shaken to ensure complete dissolution of the violet crystals. 100 μl from each well were transferred to a new 96-well plate and the absorbance was read with the FLUOstar Omega (BMG Labtech) platereader at a wavelength of 590 nm (reference wave length 630 nm). The data was analyzed using the MARS Data Analysis Software (BMG Labtech) and Prism 6.

[6] = test system: LUHMES neurons; assay: Morphological inspection and counts of viable cells; conditions: annonacin 25 nM, 48 h
Procedure: as §1, §2
The protection by the PERK activator against annonacin and 4R-tau protein overexpression was also evident on morphological inspection of the cells. […] Lentiviral 4R-tau overexpression had similar effects. […] Cell counts of viable cells with intact nuclear and somatic morphology were counted in randomly selected 1300×1000 sized areas in 4 biological replicates each, confirming the protective effects of Pa.

[7] = test system: 4R-tau and 3R-tau isoforms; assay: Western blot of 3R-/4R-tau isoforms, annonacin model; conditions: annonacin 25 nM, 48 h
Procedure: as §1, with “2005). […]” for “2005).”
Protein was extracted by scraping the cells from the culture plate with Mammalian Protein Extraction Reagent (M-PER, Thermo Fisher Scientific) and 1× cOmplete Protease Inhibitor Cocktail Tablets (Hoffmann-La Roche, Basel, Switzerland) and 1× PhosSTOP Phosphatase Inhibitor Cocktail Tablets (Hoffmann-La Roche). […] Protein concentrations were determined using the BCA kit (Thermo Fisher Scientific) by heating the samples at 60° C. for 30 min and measuring the absorption on the NanoDrop 2000c Spectrophotometer (Thermo Fisher Scientific). […]

[8] = test system: LUHMES neurons; assay: ATP assay, annonacin-treated LUHMES neurons; conditions: annonacin alone, different concentrations, 48 h
Procedure: as §1, §2
ATP assays were conducted using the ViaLight™ plus kit by Lonza according to the manufacturer's instructions. Luminescence was read with the FLUOstar Omega (BMG Labtech) platereader. The data was analyzed using the MARS Data Analysis Software (BMG Labtech) and Prism 6.

CCCCCCCCCCCC[C@@H](O)[C@H]1CC[C@H]([C@H](O)CCCC[C@H](O)CCCCC[C@@H](O)CC2=CC(C)OC2=O)O1 (stereo partly shown) [annonacin]
total tau protein (HT7) [1]: not altered | AD2 (p-Ser-396 and 404) tau phosphorylation ([1]; vs control): significantly increased | CP13 (p-Ser-202) tau phosphorylation ([1]; vs control): significantly increased | MC1 pathological tau conformation ([1]; vs control): increased | total EIF2A protein ([2]; annonacin 25 nM, vs untreated): reduced | total PERK protein ([2]; annonacin 25 nM, vs untreated): reduced | phosphorylated EIF2A (pEIF2A) protein ([2]; vs untreated): reduced | phosphorylated PERK (pPERK) protein ([2]; vs untreated): increased | splicing factor SRSF2 mRNA [3]: significantly increase | 4R-tau mRNA level ([3]; 48 h): increase | EIF2A mRNA expression ([4]; annonacin 25 nM): upregulated | ATF4 mRNA expression [4]: upregulated | MTT signal [5]: concentration-dependent decline | condensation of DNA to chromatin clumps [6]: led to the condensation of DNA to chromatin clumps | density of the dendritic network [6]: reduced | 4R-tau protein level [7]: increase | ATP concentration [8]: concentration-dependent decline

C/C=C(/C)C(=O)O[C@H]1C(C)=C2[C@H]([C@@H]1OC(=O)CCCCCCC)[C@@](C)(OC(C)=O)C[C@H](OC(=O)CCC)[C@@]1(O)[C@H]2OC(=O)[C@@]1(C)O [thapsigargin]
pPERK/PERK ratio ([2]; thapsigargin 30 nM): significantly increased | phosphorylated EIF2A (pEIF2A) protein ([2]; vs untreated): increased phosphorylation | phosphorylated PERK (pPERK) protein ([2]; vs untreated): increased phosphorylation | EIF2AK3 mRNA expression ([4]; thapsigargin 30 nM): increased expression | ATF4 mRNA expression [4]: increased expression
